Where a SMILES comes first, the peptide text is derived from it. Bridges are numbered along the chain shown (N, C = ends). [ ]: non-standard residue; d: D form. Bta = N[C@@H](Cc1csc2ccccc12)C(=O)O; Hyp = O=C(O)[C@@H]1C[C@@H](O)CN1; NMeNle = CCCC[C@H](NC)C(=O)O; NMeA = CN[C@@H](C)C(=O)O; Orn = NCCC[C@H](N)C(=O)O; Sar = CNCC(=O)O
These molecules were tested against PD-1-Ig binding to PD-L1-TVMV-His (PD-L1-His) (Homo sapiens (Human), UniProt Q9NZQ7) (assay: PD-1/PD-L1 Homogenous Time-Resolved Fluorescence (HTRF) binding assay (PD-1-Ig/PD-L1-His)). Conditions: PD-1-Ig (20 nM)/PD-L1-His (10 nM); numeric values.
Text: Methods for Testing the Ability of Macrocyclic Compounds to Compete for the Binding of PD-1 to PD-L1 Using Homogenous Time-Resolved Fluorescence (HTRF) Binding Assays
The ability of the macrocyclic compounds of the present disclosure to bind to PD-L1 was investigated using a PD-1/PD-L1 Homogenous Time-Resolved Fluorescence (HTRF) binding assay.
Homogenous Time-Resolved Fluorescence (HTRF) Assays of Binding of Soluble PD-1 to Soluble PD-L1. Soluble PD-1 and soluble PD-L1 refers to proteins with carboxyl-end truncations that remove the transmembrane-spanning regions and are fused to heterologous sequences, specifically the Fc portion of the human immunoglobulin G sequence (Ig) or the hexahistidine epitope tag (His). All binding studies were performed in an HTRF assay buffer consisting of dPBS supplemented with 0.1% (w/v) bovine serum albumin and 0.05% (v/v) Tween-20. For the PD-1-Ig/PD-L1-His binding assay, inhibitors were pre-incubated with PD-L1-His (10 nM final) for 15 m in 4 μl of assay buffer, followed by addition of PD-1-Ig (20 nM final) in 1 μl of assay buffer and further incubation for 15 m. PD-L1 fusion proteins from either human, cynomologous macaques, mouse, or other species were used. HTRF detection was achieved using europium crypate-labeled anti-Ig monoclonal antibody (1 nM final) and allophycocyanin (APC) labeled anti-His monoclonal antibody (20 nM final). Antibodies were diluted in HTRF detection buffer and 5 μl was dispensed on top of binding reaction. […] Additional binding assays were established between PD-1-Ig/PD-L2-His (20 and 5 nM, respectively), CD80-His/PD-L1-Ig (100 and 10 nM, respectively) and CD80-His/CTLA4-Ig (10 and 5 nM, respectively).
Recombinant Proteins. […] Human PD-L2-His (Sino Biologicals), CD80-His (Sino Biologicals), CTLA4-Ig (RnD Systems) were all obtained through commercial sources.

Sequence of PD-1-Ig binding to PD-L1-TVMV-His (PD-L1-His) (Q9NZQ7 other isoform, or with tags, fused parts or gaps): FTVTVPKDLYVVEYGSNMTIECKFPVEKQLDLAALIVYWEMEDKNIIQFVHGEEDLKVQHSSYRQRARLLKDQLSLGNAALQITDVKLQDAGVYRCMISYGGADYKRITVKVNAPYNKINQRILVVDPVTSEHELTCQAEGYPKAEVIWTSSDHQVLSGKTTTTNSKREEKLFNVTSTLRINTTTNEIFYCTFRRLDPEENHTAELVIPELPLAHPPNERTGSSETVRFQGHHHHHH

CCCC[C@H]1C(=O)N(C)[C@@H](CCCC)C(=O)N[C@H]2CCC(=O)NCCCC[C@H](NC(=O)[C@H](Cc3c[nH]c4ccccc34)NC(=O)[C@@H]3C[C@@H](O)CN3C(=O)[C@H](CCC(N)=O)NC(=O)[C@H](Cc3c[nH]cn3)NC(=O)[C@@H]3CCCN3C(=O)[C@H](CC(N)=O)NC(=O)[C@@H](C)NC(=O)[C@H](Cc3ccc(O)cc3)NC(=O)CSC[C@@H](C(=O)NCC(N)=O)NC2=O)C(=O)N[C@@H](Cc2c[nH]c3ccccc23)C(=O)N1C [Example 5007] ({CH2CO}-Y[dA]NPHQ[Hyp]WKW[NMeNle][NMeNle]ECG-NH2; lactam 9-13; thioether N-14) was tested, and the IC50 was 14 nM.

Same assay, conditions: PD-1-Ig (20 nM)/PD-L1-His (10 nM); range classes

CCCC[C@H]1C(=O)N(C)[C@@H](CCCC)C(=O)N[C@H]2CCCCNC(=O)CC[C@H](NC(=O)[C@H](Cc3c[nH]c4ccccc34)NC(=O)CN(C)C(=O)[C@H](CC(C)C)NC(=O)[C@H](Cc3c[nH]cn3)NC(=O)[C@@H]3CCCN3C(=O)[C@H](CC(N)=O)NC(=O)[C@H](C)N(C)C(=O)[C@H](Cc3ccccc3)NC(=O)CSC[C@@H](C(=O)NCC(N)=O)NC2=O)C(=O)N[C@@H](Cc2c[nH]c3ccccc23)C(=O)N1C [Example 5002] ({CH2CO}-F[NMeA]NPHL[Sar]WEW[NMeNle][NMeNle]KCG-NH2; lactam 9-13; thioether N-14) and CCCC[C@H]1C(=O)N(C)[C@@H](CCCC)C(=O)N[C@H]2CCC(=O)NCCC[C@H](NC(=O)[C@H](Cc3c[nH]c4ccccc34)NC(=O)CN(C)C(=O)[C@H](CC(C)C)NC(=O)[C@H](Cc3c[nH]cn3)NC(=O)[C@@H]3CCCN3C(=O)[C@H](CC(N)=O)NC(=O)[C@H](C)N(C)C(=O)[C@H](Cc3ccccc3)NC(=O)CSC[C@@H](C(=O)NCC(N)=O)NC2=O)C(=O)N[C@@H](Cc2c[nH]c3ccccc23)C(=O)N1C [Example 5003] ({CH2CO}-F[NMeA]NPHL[Sar]W[Orn]W[NMeNle][NMeNle]ECG-NH2; lactam 9-13; thioether N-14) fall in the same range of IC50: 10 to 99 nM for the first, 10 to 99 nM for the second.

First: CCCC[C@H]1C(=O)N(C)[C@@H](CCCC)C(=O)N[C@H]2CCC(=O)NCCCC[C@H](NC(=O)[C@H](Cc3c[nH]c4ccccc34)NC(=O)[C@@H]3CCCN3C(=O)[C@H](CC(C)C)NC(=O)[C@H](Cc3c[nH]cn3)NC(=O)[C@@H]3CCCN3C(=O)[C@H](CC(N)=O)NC(=O)[C@H](C)N(C)C(=O)[C@H](Cc3ccc(O)cc3)NC(=O)CSC[C@@H](C(=O)NCC(N)=O)NC2=O)C(=O)N[C@@H](Cc2csc3ccccc23)C(=O)N1C [Example 5004] ({CH2CO}-Y[NMeA]NPHLPWK[Bta][NMeNle][NMeNle]ECG-NH2; lactam 9-13; thioether N-14)
Second: CCCC[C@H]1C(=O)N(C)[C@@H](CCCC)C(=O)N[C@H]2CCCC[C@H](NC(=O)[C@H](Cc3c[nH]c4ccccc34)NC(=O)[C@@H]3CCCN3C(=O)[C@H](CC(C)C)NC(=O)[C@H](Cc3cnc[nH]3)NC(=O)[C@@H]3CCCN3C(=O)[C@H](CC(N)=O)NC(=O)[C@H](C)N(C)C(=O)[C@H](Cc3ccc(O)cc3)NC(=O)CSC[C@@H](C(=O)NCC(N)=O)NC2=O)C(=O)N[C@@H](Cc2c[nH]c3ccccc23)C(=O)N1C [Example 7156]
The IC50 of the first is lower: 3 to 9.9 nM for the first, 10 to 99 nM for the second.

First: CCCC[C@H]1C(=O)N(C)[C@@H](CCCC)C(=O)N[C@H]2CCC(=O)NCCCC[C@H](NC(=O)[C@H](Cc3c[nH]c4ccccc34)NC(=O)[C@@H]3C[C@@H](O)CN3C(=O)[C@@H]3CCCCNC(=O)C[C@H](NC(=O)[C@H](C)N(C)C(=O)[C@H](Cc4ccc(O)cc4)NC(=O)CSC[C@@H](C(=O)NCC(N)=O)NC2=O)C(=O)N2CCC[C@H]2C(=O)N[C@@H](Cc2c[nH]cn2)C(=O)N3)C(=O)N[C@@H](Cc2c[nH]c3ccccc23)C(=O)N1C [Example 5005] ({CH2CO}-Y[NMeA]DPHK[Hyp]WKW[NMeNle][NMeNle]ECG-NH2; lactam 3-6, 9-13; thioether N-14)
Second: CCCC[C@H]1C(=O)N(C)[C@@H](CCCC)C(=O)N[C@H]2CCC(=O)NCCCC[C@H](NC(=O)[C@H](Cc3c[nH]c4ccccc34)NC(=O)[C@@H]3C[C@@H](O)CN3C(=O)[C@H](CC(C)C)NC(=O)[C@H](Cc3c[nH]cn3)NC(=O)[C@@H]3CCCN3C(=O)[C@H](CC(N)=O)NC(=O)[C@@H](C)NC(=O)[C@H](Cc3ccc(O)cc3)NC(=O)CSC[C@@H](C(=O)NCC(N)=O)NC2=O)C(=O)N[C@@H](Cc2c[nH]c3ccccc23)C(=O)N1C [Example 5008] ({CH2CO}-Y[dA]NPHL[Hyp]WKW[NMeNle][NMeNle]ECG-NH2; lactam 9-13; thioether N-14)
The IC50 of the first is higher: 10 to 99 nM for the first, 3 to 9.9 nM for the second. The second is the more potent here.

Compared with CCCC[C@H]1C(=O)N(C)[C@@H](CCCC)C(=O)N[C@@H](CCC(N)=O)C(=O)N[C@H](C(=O)NCC(N)=O)CSCC(=O)N[C@@H](Cc2ccc(O)cc2)C(=O)N[C@H](C)C(=O)N[C@H]2CC(=O)NCCCC[C@H](NC(=O)[C@H](Cc3c[nH]cn3)NC(=O)[C@@H]3CCCN3C2=O)C(=O)N2C[C@H](O)C[C@H]2C(=O)N[C@@H](Cc2c[nH]c3ccccc23)C(=O)N[C@@H](CO)C(=O)N[C@@H](Cc2c[nH]c3ccccc23)C(=O)N1C [Example 5006] ({CH2CO}-Y[dA]DPHK[Hyp]WSW[NMeNle][NMeNle]QCG-NH2; lactam 3-6; thioether N-14), CCCC[C@H]1C(=O)N(C)[C@@H](CCCC)C(=O)N[C@@H](CC(C)C)C(=O)N[C@H](C(=O)NCC(N)=O)CSCC(=O)N[C@@H](Cc2ccc(O)cc2)C(=O)N(C)[C@@H](C)C(=O)N[C@H]2CCC(=O)NCCCC[C@H](NC(=O)[C@@H]3CCCN3C2=O)C(=O)N[C@@H](CC(C)C)C(=O)N2CCC[C@H]2C(=O)N[C@@H](Cc2c[nH]c3ccccc23)C(=O)N[C@@H](CO)C(=O)N[C@@H](Cc2c[nH]c3ccccc23)C(=O)N1C [Example 10501] is higher in IC50: 10 to 99 nM for the first, 100 to 1000 nM for the second. The first is the more potent here.

CCCC[C@H]1C(=O)N(C)[C@@H](CCCC)C(=O)N[C@@H](CC(C)C)C(=O)N[C@H](C(=O)NCC(N)=O)CSCC(=O)N[C@@H](Cc2ccc(O)cc2)C(=O)N(C)[C@@H](C)C(=O)N[C@H]2CCC(=O)NC[C@H](NC(=O)[C@@H]3CCCN3C2=O)C(=O)N[C@@H](CC(C)C)C(=O)N2CCC[C@H]2C(=O)N[C@@H](Cc2c[nH]c3ccccc23)C(=O)N[C@@H](CO)C(=O)N[C@@H](Cc2c[nH]c3ccccc23)C(=O)N1C [Example 10500] and CCCC[C@H]1C(=O)N(C)[C@@H](CCCC)C(=O)N[C@@H](CC(C)C)C(=O)N[C@H](C(=O)NCC(N)=O)CSCC(=O)N[C@@H](Cc2ccc(O)cc2)C(=O)N(C)[C@@H](C)C(=O)N[C@H]2CCC(=O)NCC[C@H](NC(=O)[C@@H]3CCCN3C2=O)C(=O)N[C@@H](CC(C)C)C(=O)N2CCC[C@H]2C(=O)N[C@@H](Cc2c[nH]c3ccccc23)C(=O)N[C@@H](CO)C(=O)N[C@@H](Cc2c[nH]c3ccccc23)C(=O)N1C [Example 10503] fall in the same range of IC50: 100 to 1000 nM for the first, 100 to 1000 nM for the second.
